{
  "source": "patent US20040127467A1",
  "about": "“Synthesis of pancratistatin prodrugs” (priority 2003, published 2004)",
  "key": {"[1]": {"system": "U.S. National Cancer Institute (NCI) panel of cancer cell lines", "conditions": "cited from earlier work"}, "[2]": {"system": "RNA viruses", "conditions": "cited from earlier work"}, "[3]": {"system": "murine P388 lymphocytic leukemia cell line", "conditions": "compared with pancratistatin (1a); cited from earlier work"}, "[4]": {"system": "minipanel of human cancer cell lines", "assay": "minipanel of human cancer cell lines growth inhibition", "format": "cell-based", "conditions": "murine P388 and minipanel of human cancer cell lines (Table I)", "protocol": "All of the synthetic products were evaluated against the murine P388 lymphocytic leukemia cell line and a minipanel of human cancer cell lines."}, "[5]": {"conditions": "compared with pancratistatin (1a); cited from earlier work"}},
  "data": [
    {"compound": "O=C1N[C@H]2[C@H](O)[C@H](O)[C@@H](O)[C@H](O)[C@@H]2c2cc3c(c(O)c21)OCO3", "note": "[1a, (+)-pancratistatin]", "values": [
      {"measurement": "in vitro cancer cell growth inhibitory activities (in words)", "setting": "[1]", "value": "strong"},
      {"measurement": "activity against a range of RNA viruses (in words)", "setting": "[2]", "value": "activity against a range of RNA viruses"}
    ]},
    {"compound": "O=C1N[C@H]2[C@H](O)[C@H](O)[C@@H](O)[C@H](O)[C@@H]2c2cc3c(c(OP(=O)([O-])[O-])c21)OCO3.[Na+].[Na+]", "note": "[2a, Disodium 7-O-phosphoryl-pancratistatin]", "values": [
      {"measurement": "activity against the murine P388 lymphocytic leukemia cell (in words)", "setting": "[3]", "value": "equal activity"},
      {"measurement": "cancer cell line activity (in words)", "setting": "[4]", "value": "high activity"},
      {"measurement": "solubility characteristics in water (in words)", "setting": "[5]", "value": "greatly improved solubility characteristics in water"}
    ]},
    {"compound": "C1COCCN1.O=C1NC2C(O)C(O)C(O)C(O)C2c2cc3c(c(OP(=O)(O)O)c21)OCO3", "note": "(stereo not drawn) [2k, Morpholine pancratistatin 7-O-phosphate]", "values": [
      {"measurement": "water solubility (in words)", "value": "poor water solubility"}
    ]}
  ]
}
